Values after ≈ are worked out from the molar mass of the structure shown. Read-outs that look alike come from different tables or passages of the source.
Assays:
[1] = system: HepG2 cells; assay: Cytotoxicity MTT assay in HepG2 cells; format: cell-based; conditions: Homo sapiens
Method: Additionally, the antimicrobial compounds were analyzed for cytotoxicity. […] We utilized the standard MTT assay (Promega CellTiter 96) and GraphPad Prism 7 software to determine EC50 values for each analogue. Briefly, 20,000 HepG2 cells in 200 μl of the ATCC recommended media were seeded in each well of a 96-well plate with a moisture barrier created in the outermost wells. The cells were allowed to attach overnight at 37° C., and then observed under phase contrast microscopy for proper morphological characteristics. […] Once incubations were complete, the spectrophotometric absorbance of the samples was measured at a wavelength of 595 nm. […] For the HepaRG assay, NoSpin HepaRG™ cells (Lonza, cat #NSHPRG) were thawed and plated with 20,000 cells per well. They were allowed to attach for 4 h (optimal DME profile per Lonza's testing) before dosing following the identical protocol as above.

[2] = system: Staphylococcus aureus; assay: microbe, parasite or virus in culture
[3] = Toxicity study in mice, body weight over 7 days; format: in vivo; conditions: 6-week-old Balb/c mice
Description: The vehicle is 40% PEG300 solution in 0.9% NaCl. […] Thus, the compounds are useful for in vivo antimicrobial administration.

[4] = system: Burkholderia thailandensis; assay: microbe, parasite or virus in culture; format: cell-based
[5] = system: Burkholderia cenocepacia; assay: microbe, parasite or virus in culture; format: cell-based
[6] = system: Francisella tularensis; assay: microbe, parasite or virus in culture; format: cell-based; conditions: read-out: Francisella tularensis NR-577 MIC, strain NR-577
[7] = MRSA, read-out: Staphylococcus aureus MIC, MRSA strain HM-467
[8] = MRSA, read-out: Staphylococcus aureus MIC, MRSA strain NK-41886
[9] = MRSA, read-out: Staphylococcus aureus MIC, MRSA strain NR-13533
[10] = MRSA, read-out: Staphylococcus aureus MIC, MRSA strain NR-28983
[11] = MRSA, read-out: Staphylococcus aureus MIC, MRSA strain NR-41875
[12] = MRSA, read-out: Staphylococcus aureus MIC, MRSA strain NR-41876
[13] = MRSA, read-out: Staphylococcus aureus MIC, MRSA strain NR-41877
[14] = MRSA, read-out: Staphylococcus aureus MIC, MRSA strain NR-41878
[15] = read-out: Staphylococcus aureus MIC, VSSA NR-49121

## CCc1ccccc1Sc1c(CO)[nH]c2ccc(C(F)(F)F)cc12 [Compound 177I, (3-((2-ethylphenyl)thio)-5-(trifluoromethyl)-1H-indol-2-yl)methanol]
[1]
  EC50: 31.3 µg/mL (≈ 89.1 µM)

## OCc1ccccc1Sc1c[nH]c2ccc(Br)cc12 [Compound 174AT, (2-((5-bromo-1H-indol-3-yl)thio)phenyl)methanol]
[2]; [7]
  MIC: 32 µg/mL (≈ 95.7 µM)
[2]; [8]
  MIC: 16 µg/mL (≈ 47.9 µM)
[2]; [9]
  MIC: 16 µg/mL (≈ 47.9 µM)
[2]; [10]
  MIC: 16 µg/mL (≈ 47.9 µM)
[2]; [11]
  MIC: 16 µg/mL (≈ 47.9 µM)
[2]; [12]
  MIC: 16 µg/mL (≈ 47.9 µM)
[2]; [13]
  MIC: 16 µg/mL (≈ 47.9 µM)
[2]; [14]
  MIC: 16 µg/mL (≈ 47.9 µM)
[2]; [15]
  MIC: 16 µg/mL (≈ 47.9 µM)

## Oc1ccccc1Sc1c[nH]c2ccc(Br)cc12 [Compound 174AI, 2-((5-bromo-1H-indol-3-yl)thio)phenol]
[1]
  EC50: 27.4 µg/mL (≈ 85.6 µM)
[2]; [7]
  MIC: 16 µg/mL (≈ 50 µM)
[2]; [8]
  MIC: 8 µg/mL (≈ 25 µM)
[2]; [9]
  MIC: 8 µg/mL (≈ 25 µM)
[2]; [10]
  MIC: 8 µg/mL (≈ 25 µM)
[2]; [11]
  MIC: 8 µg/mL (≈ 25 µM)
[2]; [12]
  MIC: 8 µg/mL (≈ 25 µM)
[2]; [13]
  MIC: 8 µg/mL (≈ 25 µM)
[2]; [14]
  MIC: 8 µg/mL (≈ 25 µM)
[2]; [15]
  MIC: 8 µg/mL (≈ 25 µM)
[3]
  toxicity by body weight: did not have significant toxicity

## FC(F)(F)c1ccc2[nH]cc(Sc3ccccc3Br)c2c1 [Compound 174AX, 3-((2-bromophenyl)thio)-5-(trifluoromethyl)-1H-indole]
[2]; [7]
  MIC: 2 µg/mL (≈ 5.37 µM)
[2]; [8]
  MIC: 2 µg/mL (≈ 5.37 µM)
[2]; [9]
  MIC: 1 µg/mL (≈ 2.69 µM)
[2]; [10]
  MIC: 2 µg/mL (≈ 5.37 µM)
[2]; [11]
  MIC: 1 µg/mL (≈ 2.69 µM)
[2]; [12]
  MIC: 2 µg/mL (≈ 5.37 µM)
[2]; [13]
  MIC: 2 µg/mL (≈ 5.37 µM)
[2]; [14]
  MIC: 1 µg/mL (≈ 2.69 µM)
[2]; [15]
  MIC: 1 µg/mL (≈ 2.69 µM)

## Fc1ccc(Sc2c[nH]c3ccc(Br)cc23)cc1 [Compound 174P, 5-bromo-3-((4-fluorophenyl)thio)-1H-indole]
[1]
  EC50: 38.3 µg/mL (≈ 119 µM)

## Brc1ccc(Sc2c[nH]c3ccccc23)cc1 [Compound 156K, 3-((4-bromophenyl)thio)-1H-indole]
[1]
  EC50: 27.6 µg/mL (≈ 90.7 µM)

## Fc1ccccc1Sc1c[nH]c2ccc(Br)cc12 [Compound 174AU, 5-bromo-3-((2-fluorophenyl)thio)-1H-indole]
[2]; [7]
  MIC: 2 µg/mL (≈ 6.21 µM)
[2]; [8]
  MIC: 2 µg/mL (≈ 6.21 µM)
[2]; [9]
  MIC: 2 µg/mL (≈ 6.21 µM)
[2]; [10]
  MIC: 2 µg/mL (≈ 6.21 µM)
[2]; [11]
  MIC: 2 µg/mL (≈ 6.21 µM)
[2]; [12]
  MIC: 2 µg/mL (≈ 6.21 µM)
[2]; [13]
  MIC: 4 µg/mL (≈ 12.4 µM)
[2]; [14]
  MIC: 2 µg/mL (≈ 6.21 µM)
[2]; [15]
  MIC: 4 µg/mL (≈ 12.4 µM)
[3]
  toxicity by body weight: did not have significant toxicity

## OCc1[nH]c2ccc(Br)cc2c1Sc1ccccc1Br [Compound 177H, (5-bromo-3-((2-bromophenyl)thio)-1H-indol-2-yl)methanol]
[1]
  EC50: 31.8 µg/mL (≈ 77 µM)

## Oc1ccc(Sc2c[nH]c3ccccc23)cc1 [Compound 156I, 4-((1H-indol-3-yl)thio)phenol]
[4]
  MBC: 100 µg/mL (≈ 414 µM)
  MIC: 50 µg/mL (≈ 207 µM)
[1]
  EC50: 12.1 µg/mL (≈ 50.1 µM)
[5]
  MBC: 150 µg/mL (≈ 622 µM)
  MIC: 50 µg/mL (≈ 207 µM)

## Oc1ccccc1Sc1c[nH]c2ccc(C(F)(F)F)cc12 [Compound 177A, 2-((5-(trifluoromethyl)-1H-indol-3-yl)thio)phenol]
[1]
  EC50: 24.1 µg/mL (≈ 77.9 µM)

## Clc1ccc2[nH]cc(Sc3ccc(Br)cc3)c2c1 [Compound 174C, 3-((4-bromophenyl)thio)-5-chloro-1H-indole]
[1]
  EC50: 25.4 µg/mL (≈ 75 µM)

## Oc1ccc(Sc2c[nH]c3ccc(C(F)(F)F)cc23)cc1 [Compound 177B, 4-((5-(trifluoromethyl)-1H-indol-3-yl)thio)phenol]
[1]
  EC50: 27.7 µg/mL (≈ 89.6 µM)

## Nc1cc(Br)ccc1Sc1c[nH]c2ccc(Br)cc12 [Compound 174X, 5-bromo-2-((5-bromo-1H-indol-3-yl)thio)aniline]
[1]
  EC50: 30.2 µg/mL (≈ 75.9 µM)

## Fc1ccccc1Sc1c[nH]c2ccc(C(F)(F)F)cc12 [Compound 177D, 3-((2-fluorophenyl)thio)-5-(trifluoromethyl)-1H-indole]
[1]
  EC50: 27.1 µg/mL (≈ 87.1 µM)

## Brc1ccc(Sc2c[nH]c3ccc(Br)cc23)cc1 [Compound 172D, 5-bromo-3-((4-bromophenyl)thio)-1H-indole]
[2]; [7]
  MIC: 12.5 µg/mL (≈ 32.6 µM)
[2]; [8]
  MIC: 1.56 µg/mL (≈ 4.07 µM)
[2]; [9]
  MIC: 1.56 µg/mL (≈ 4.07 µM)
[2]; [10]
  MIC: 1.56 µg/mL (≈ 4.07 µM)
[2]; [11]
  MIC: 3.13 µg/mL (≈ 8.17 µM)
[2]; [12]
  MIC: 1.56 µg/mL (≈ 4.07 µM)
[2]; [13]
  MIC: 3.13 µg/mL (≈ 8.17 µM)
[2]; [14]
  MIC: 1.56 µg/mL (≈ 4.07 µM)
[2]; [15]
  MIC: 1.56 µg/mL (≈ 4.07 µM)

## Clc1ccc(Sc2c[nH]c3ccc(Br)cc23)cc1 [Compound 174J, 5-bromo-3-((4-chlorophenyl)thio)-1H-indole]
[1]
  EC50: 25.3 µg/mL (≈ 74.7 µM)

## CCc1ccccc1Sc1c[nH]c2ccc(C(F)(F)F)cc12 [Compound 177G, 3-((2-ethylphenyl)thio)-5-(trifluoromethyl)-1H-indole]
[1]
  EC50: 29.5 µg/mL (≈ 91.8 µM)

## FC(F)(F)c1ccc2[nH]cc(Sc3ccccc3C(F)(F)F)c2c1 [Compound 177F, 5-(trifluoromethyl)-3-((2-(trifluoromethyl)phenyl)thio)-1H-indole]
[1]
  EC50: 29.8 µg/mL (≈ 82.5 µM)

## Nc1ccccc1Sc1c[nH]c2ccc(C(F)(F)F)cc12 [Compound 177C, 2-((5-(trifluoromethyl)-1H-indol-3-yl)thio)aniline]
[1]
  EC50: 48.2 µg/mL (≈ 156 µM)

## FC(F)(F)c1ccccc1Sc1c[nH]c2ccc(Br)cc12 [Compound 174AV, 5-bromo-3-((2-(trifluoromethyl)phenyl)thio)-1H-indole]
[2]; [7]
  MIC: 2 µg/mL (≈ 5.37 µM)
[2]; [8]
  MIC: 2 µg/mL (≈ 5.37 µM)
[2]; [9]
  MIC: 1 µg/mL (≈ 2.69 µM)
[2]; [10]
  MIC: 1 µg/mL (≈ 2.69 µM)
[2]; [11]
  MIC: 1 µg/mL (≈ 2.69 µM)
[2]; [12]
  MIC: 2 µg/mL (≈ 5.37 µM)
[2]; [13]
  MIC: 2 µg/mL (≈ 5.37 µM)
[2]; [14]
  MIC: 2 µg/mL (≈ 5.37 µM)
[2]; [15]
  MIC: 2 µg/mL (≈ 5.37 µM)

## Cc1ccccc1Sc1c[nH]c2ccc(Br)cc12 [Compound 174AY, 5-bromo-3-(o-tolylthio)-1H-indole]
[2]; [7]
  MIC: 4 µg/mL (≈ 12.6 µM)
[2]; [8]
  MIC: 4 µg/mL (≈ 12.6 µM)
[2]; [9]
  MIC: 4 µg/mL (≈ 12.6 µM)
[2]; [10]
  MIC: 4 µg/mL (≈ 12.6 µM)
[2]; [11]
  MIC: 4 µg/mL (≈ 12.6 µM)
[2]; [12]
  MIC: 2 µg/mL (≈ 6.28 µM)
[2]; [13]
  MIC: 2 µg/mL (≈ 6.28 µM)
[2]; [14]
  MIC: 2 µg/mL (≈ 6.28 µM)
[2]; [15]
  MIC: 2 µg/mL (≈ 6.28 µM)

## c1ccc(Oc2c[nH]c3ccccc23)cc1 [Compound 925C, 3-phenoxy-1H-indole]
[6]
  MIC: 8 µg/mL (≈ 38.2 µM)

## Clc1ccc(Sc2c[nH]c3ccc(Br)cc23)c(Cl)c1 [Compound 174V, 5-bromo-3-((2,4-dichlorophenyl)thio)-1H-indole]
[1]
  EC50: 24.8 µg/mL (≈ 66.5 µM)

## Cc1[nH]c2ccc(Br)cc2c1Sc1ccccc1Br [Compound 174AZ, 5-bromo-3-((2-bromophenyl)thio)-2-methyl-1H-indole]
[1]
  EC50: 25.8 µg/mL (≈ 65 µM)
[2]; [11]
  MIC: 4 µg/mL (≈ 10.1 µM)
[2]; [12]
  MIC: 2 µg/mL (≈ 5.04 µM)
[2]; [15]
  MIC: 2 µg/mL (≈ 5.04 µM)
[3]
  toxicity by body weight: did not have significant toxicity

## COc1ccc2[nH]cc(Sc3ccc(Br)cc3)c2c1 [Compound 172E, 3-((4-bromophenyl)thio)-5-methoxy-1H-indole]
[1]
  EC50: 23.3 µg/mL (≈ 69.7 µM)

## Brc1ccc2[nH]cc(Sc3c[nH]c4ccccc34)c2c1 [Compound 174AL, 3-((1H-indol-3-yl)thio)-5-bromo-1H-indole]
[1]
  EC50: 26.1 µg/mL (≈ 76 µM)

## Fc1ccc2[nH]cc(Sc3ccc(Br)cc3)c2c1 [Compound 174E, 3-((4-bromophenyl)thio)-5-fluoro-1H-indole]
[1]
  EC50: 23.6 µg/mL (≈ 73.2 µM)

## Brc1cccc(Sc2c[nH]c3ccc(Br)cc23)c1 [Compound 174N, 5-bromo-3-((3-bromophenyl)thio)-1H-indole]
[1]
  EC50: 29.5 µg/mL (≈ 77 µM)
[2]; [7]
  MIC: 3.13 µg/mL (≈ 8.17 µM)
[2]; [8]
  MIC: 3.13 µg/mL (≈ 8.17 µM)
[2]; [9]
  MIC: 3.13 µg/mL (≈ 8.17 µM)
[2]; [10]
  MIC: 3.13 µg/mL (≈ 8.17 µM)
[2]; [11]
  MIC: 3.13 µg/mL (≈ 8.17 µM)
[2]; [12]
  MIC: 3.13 µg/mL (≈ 8.17 µM)
[2]; [13]
  MIC: 3.13 µg/mL (≈ 8.17 µM)
[2]; [14]
  MIC: 3.13 µg/mL (≈ 8.17 µM)
[2]; [15]
  MIC: 1.56 µg/mL (≈ 4.07 µM)

## Brc1ccc(Sc2c[nH]c3cccc(Br)c23)cc1 [Compound 174D, 4-bromo-3-((4-bromophenyl)thio)-1H-indole]
[1]
  EC50: 23.2 µg/mL (≈ 60.6 µM)

## Fc1ccc2[nH]cc(Sc3ccccc3Br)c2c1 [Compound 177E, 3-((2-bromophenyl)thio)-5-fluoro-1H-indole]
[1]
  EC50: 31.6 µg/mL (≈ 98.1 µM)

From patent US20250382268A1, “METHODS AND COMPOSITIONS FOR SELECTIVELY INHIBITING PATHOGENIC MICROBES” (priority 2019, published 2025)
